Data taken from patent EP4667464A1 (Cyrus Therapeutics Inc., priority 2023, dated 2024).
Read-outs that look alike come from different tables or passages of the source.

Columns and labels:
[1] = target: T1, SOS1 (Homo sapiens, UniProt Q07889); assay: SOS-catalyzed nucleotide exchange assay (HTRF, SOS1-mediated GTP loading of KRAS G12D); assay type: biochemical
T1 construct: HIS-SOS1cat (160 nM; Cytoskeleton, US); His (N); purchased Cytoskeleton
T1 sequence (Q07889 564-1049 limits assumed): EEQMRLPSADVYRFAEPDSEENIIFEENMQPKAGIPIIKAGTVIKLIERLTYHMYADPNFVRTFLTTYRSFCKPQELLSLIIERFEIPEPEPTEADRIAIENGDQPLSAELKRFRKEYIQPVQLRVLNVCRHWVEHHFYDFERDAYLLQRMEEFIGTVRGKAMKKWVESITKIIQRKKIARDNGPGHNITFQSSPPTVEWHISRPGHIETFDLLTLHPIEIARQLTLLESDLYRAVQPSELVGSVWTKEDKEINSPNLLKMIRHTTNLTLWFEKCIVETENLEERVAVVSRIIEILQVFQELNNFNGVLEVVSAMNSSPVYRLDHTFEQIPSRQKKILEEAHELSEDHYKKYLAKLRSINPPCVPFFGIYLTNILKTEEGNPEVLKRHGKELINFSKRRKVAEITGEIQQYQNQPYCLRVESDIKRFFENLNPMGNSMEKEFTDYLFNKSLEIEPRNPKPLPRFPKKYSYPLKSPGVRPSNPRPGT
Experimental: SOS1 activity was measured by SOS1-mediated GTP loading quantification of KRAS^G12D. GTP loaded KRAS^G12D was detected by HTRF (Homogeneous Time Resolved Fluorescence) using anti-GST terbium (Cisbio, France) as a donor and a fluorescence GTP analogue (EDA-GTP-DY-647P1, [DY-647P1 labeled 2'/3'-O-(2-aminoethyl-carbamoyl)guanosine-5'-triphosphate (Jena bioscience, Germany)]) as an acceptor.
KRAS^G12D working solution was prepared by adding equal amounts of GST-KRAS^G12D (100 nM) and anti-GST-terbium (2 nM; Cisbio, France) to the assay buffer and culturing on ice for 10 minutes. […] Control solution was prepared by adding equal volumes of EDA-GTP-DY-647P1 and the assay buffer for normalization control to exclude GEF-independent GTP loading and background signals.
10 uL of the KRAS^G12D solution was added to each well and incubated for 30 minutes at room temperature while shaking. HTRF was measured using a Thermo Varioskan (excitation 334 nm, emission 665 nm). The IC50 of each inhibitor was analyzed using Graphad Prism.

[2] = target: T2, KRAS G12C::SOS1 (Homo sapiens, UniProt Q07889); assay: KRAS G12C::SOS1 protein-protein interaction (PPI) inhibition assay (HTRF); assay type: binding
T2 construct: purchased CISBIO 64KRASG12PEH
T2 sequence (Q07889 1-1333): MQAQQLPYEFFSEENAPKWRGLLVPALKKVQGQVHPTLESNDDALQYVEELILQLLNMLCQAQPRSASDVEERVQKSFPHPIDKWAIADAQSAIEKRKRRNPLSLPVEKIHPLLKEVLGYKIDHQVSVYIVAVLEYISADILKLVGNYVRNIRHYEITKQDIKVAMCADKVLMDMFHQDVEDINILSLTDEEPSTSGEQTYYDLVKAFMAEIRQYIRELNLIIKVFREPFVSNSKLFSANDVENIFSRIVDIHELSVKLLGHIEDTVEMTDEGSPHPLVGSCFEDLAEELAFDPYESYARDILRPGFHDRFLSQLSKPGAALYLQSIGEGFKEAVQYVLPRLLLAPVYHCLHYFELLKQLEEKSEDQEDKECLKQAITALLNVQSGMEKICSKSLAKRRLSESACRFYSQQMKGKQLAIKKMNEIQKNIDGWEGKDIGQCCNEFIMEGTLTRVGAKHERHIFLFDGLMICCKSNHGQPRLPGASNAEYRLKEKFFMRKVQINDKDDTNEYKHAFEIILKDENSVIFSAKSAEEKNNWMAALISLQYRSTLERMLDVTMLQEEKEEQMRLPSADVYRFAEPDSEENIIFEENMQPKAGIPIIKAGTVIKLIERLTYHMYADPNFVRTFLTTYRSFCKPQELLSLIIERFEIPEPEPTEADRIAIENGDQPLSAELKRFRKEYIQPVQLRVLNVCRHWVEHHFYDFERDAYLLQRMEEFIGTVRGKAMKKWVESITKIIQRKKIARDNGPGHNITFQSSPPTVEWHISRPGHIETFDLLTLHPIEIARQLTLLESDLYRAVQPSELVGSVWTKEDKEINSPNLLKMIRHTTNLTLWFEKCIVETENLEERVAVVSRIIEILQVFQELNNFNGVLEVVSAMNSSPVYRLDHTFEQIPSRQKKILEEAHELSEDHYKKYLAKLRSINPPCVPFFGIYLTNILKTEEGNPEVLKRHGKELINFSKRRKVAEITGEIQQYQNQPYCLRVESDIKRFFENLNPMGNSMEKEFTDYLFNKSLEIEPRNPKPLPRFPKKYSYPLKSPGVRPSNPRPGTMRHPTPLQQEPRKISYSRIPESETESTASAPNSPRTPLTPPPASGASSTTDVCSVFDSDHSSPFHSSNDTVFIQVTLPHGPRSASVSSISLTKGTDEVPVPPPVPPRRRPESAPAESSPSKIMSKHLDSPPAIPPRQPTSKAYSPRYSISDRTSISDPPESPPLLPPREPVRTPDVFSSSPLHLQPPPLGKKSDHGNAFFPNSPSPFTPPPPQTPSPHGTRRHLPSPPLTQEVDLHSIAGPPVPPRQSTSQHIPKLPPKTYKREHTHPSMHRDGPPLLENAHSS
Experimental: Protein-protein interaction between SOS1 and KRAS^G12c was detected using KRAS G12C/SOS1 binding kit from CISBIO (64KRASG12PEH, CISBIO, FRANCE) according to the manufacturer's assay method. Briefly, the maximum concentration of an inhibitor sample was set to be 3 µM, and the inhibitor sample was diluted 7 times by 1/3, and samples having a total of 8 concentrations were prepared. In HTRF (Homogeneous Time-Resolved Fluorescence) exclusive 96-well low-volume white plate (66PL96005, CISBIO, FRANCE), 2 µL of an inhibitor sample prepared for each concentration, 5 µL of a mixed solution of Tag1 labeled KRAS^G12c protein and GTP diluted with the dilution solution provided by the manufacturer, and 5 µL of Tag2 labeled SOS1 protein were mixed, and added with 8 µL of a diluted solution where anti-Tag1 KRAS^G12C XL665 (HTRF acceptor) labeled antibody and anti-Tag2 SOS1 Terbium cryptate (HTRF donor) labeled antibody were mixed in an equal ratio and cultured at room temperature for 2 h.

[3] = 8 concentrations from 3 µM, three replicates, read-out: KRAS G12C::SOS1 PPI
[4] = GST-KRAS G12D, HIS-SOS1cat, compound 128 pM to 10 µM, read-out: SOS-catalyzed nucleotide exchange assay

IC50 [2, 3] [nM] | SMILES | also measured
 | C[C@@H](NC(=O)c1ccc(=O)n(-c2cc(-c3cnnn3C3CC3)cnc2F)n1)c1cccc(C(F)(F)CO)c1F [Example 6-8] | IC50 [1]: < 50 nM; IC50 [2]: < 50 nM
> 150 | C[C@@H](NC(=O)c1ccc(=O)n(-c2cncc(-c3cnnn3C)c2)n1)c1cccc(C2(CF)CC2)c1F (single isomer, unassigned) [Example 16] | 
50 to 150 | C[C@@H](NC(=O)c1ccc(=O)n(-c2cncc(-c3cnnn3C)c2)n1)c1cccc(C(F)(F)F)c1Cl [Example 1-31, N-[(1R)-1-[2-chloro-3-(trifluoromethyl)phenyl]ethyl]-1-[5-(3-methyltriazol-4-yl)-3-pyridyl]-6-oxo-pyridazine-3-carboxamide] | 
50 to 150 | COc1ncc(-n2nc(C(=O)N[C@H](C)c3cccc(C(F)(F)F)c3F)ccc2=O)cc1-c1cnnn1C [Example 6-5, N-{(R)-1-[2-fluoro-3-(trifluoromethyl)phenyl]ethyl}-1-[6-methoxy-5-(1-methyl-1H-1,2,3-triazol-5-yl)-3-pyridyl]-6-oxo-1,6-dihydropyridazine-3-carboxamide] | 
> 150 | Cc1ncc(-n2nc(C(=O)N[C@H](C)c3cccc(C(F)F)c3F)ccc2=O)cc1-c1cnnn1C [Example 1-47, N-{(R)-1-[3-(difluoromethyl)-2-fluorophenyl]ethyl}-1-[6-methyl-5-(1-methyl-1H-1,2,3-triazol-5-yl)-3-pyridyl]-6-oxo-1,6-dihydropyridazine-3-carboxamide] | 
 | C[C@@H](NC(=O)c1cc(C(F)(F)F)c(=O)n(-c2cncc(-c3cnnn3C)c2)n1)c1cccc(C(F)(F)CO)c1F [Example 1-72, (R)-N-(1-(3-(1,1-difluoro-2-hydroxyethyl)-2-fluorophenyl)ethyl)-1-(5-(1-methyl-1H-1,2,3-triazol-5-yl)pyridin-3-yl)-6-oxo-5-(trifluoromethyl)-1,6-dihydropyridazine-3-carboxamide] | IC50 [1, 4]: < 50 nM
> 150 | Cc1ncc(-n2nc(C(=O)N[C@H](C)c3cccc(C(F)(F)CO)c3C)ccc2=O)cc1-c1cnnn1C [Example 1-28, N-[(1R)-1-[3-(1,1-difluoro-2-hydroxy-ethyl)-2-methyl-phenyl]ethyl]-1-[6-methyl-5-(3-methyltriazol-4-yl)-3-pyridyl]-6-oxo-pyridazine-3-carboxamide] | 
50 to 150 | C[C@@H](NC(=O)c1ccc(=O)n(-c2cnc(N(C)C)c(-c3cnnn3C)c2)n1)c1cccc(C(F)(F)F)c1F [Example 6-6, N-{(R)-1-[2-fluoro-3-(trifluoromethyl)phenyl]ethyl}-1-[6-(dimethylamino)-5-(1-methyl-1H-1,2,3-triazol-5-yl)-3-pyridyl]-6-oxo-1,6-dihydropyridazine-3-carboxamide] | 
 | [2H]C([2H])(O)C(F)(F)c1cccc([C@@H](C)NC(=O)c2ccc(=O)n(-c3cncc(-c4cnnn4C4COC4)c3)n2)c1F [Example 1-71, (R)-N-(1-(3-(1,1-difluoro-2-hydroxyethyl-2,2-dideuterio)-2-fluorophenyl)ethyl)-1-(5-(1-(oxetan-3-yl)-1H-1,2,3-triazol-5-yl)pyridin-3-yl)-6-oxo-1,6-dihydropyridazine-3-carboxamide] | IC50 [1, 4]: < 50 nM
> 150 | C[C@@H](NC(=O)c1ccc(=O)n(-c2cncc(-c3cnnn3C)c2)n1)c1cccc(C2=CCC2)c1F (single isomer, unassigned) [Example 17] | 
> 150 | C[C@@H](NC(=O)c1cc(N[C@H](C)c2cccc(C(F)(F)F)c2F)c(=O)n(-c2cncc(-c3cnnn3C)c2)n1)c1cccc(C(F)(F)F)c1F [Example 1-44, N-{(R)-1-[2-fluoro-3-(trifluoromethyl)phenyl]ethyl}-5-{(R)-1-[2-fluoro-3-(trifluoromethyl)phenyl]ethylamino}-1-[5-(1-methyl-1H-1,2,3-triazol-5-yl)-3-pyridyl]-6-oxo-1,6-dihydropyridazine-3-carboxamide] | 
50 to 150 | CNc1ncc(-n2nc(C(=O)N[C@H](C)c3cccc(C(F)(F)F)c3F)ccc2=O)cc1-c1cnnn1C [Example 1-45, N-{(R)-1-[2-fluoro-3-(trifluoromethyl)phenyl]ethyl}-1-[6-(methylamino)-5-(1-methyl-1H-1,2,3-triazol-5-yl)-3-pyridyl]-6-oxo-1,6-dihydropyridazine-3-carboxamide] | 
 | C[C@@H](NC(=O)c1ccc(=O)n(-c2cncc(-c3cnnn3C3COC3)c2)n1)c1cccc(C(F)(F)CO)c1F [Example 1-70, (R)-N-(1-(3-(1,1-difluoro-2-hydroxyethyl)-2-fluorophenyl)ethyl)-1-(5-(1-(oxetan-3-yl)-1H-1,2,3-triazol-5-yl)pyridin-3-yl)-6-oxo-1,6-dihydropyridazine-3-carboxamide] | IC50 [1, 4]: < 50 nM
 | COCC1(c2cccc([C@@H](C)NC(=O)c3ccc(=O)n(-c4cncc(-c5cnnn5C)c4)n3)c2F)CC1 [Example 18, N-[(1R)-1-[2-fluoro-3-[1-(methoxymethyl)cyclopropyl]phenyl]ethyl]-1-[5-(3-methyltriazol-4-yl)-3-pyridyl]-6-oxo-pyridazine-3-carboxamide] | IC50 [2]: > 150 nM
 | C[C@@H](NC(=O)c1ccc(=O)n(-c2cncc(-c3cnnn3C)c2)n1)c1cccc(C2(CO)CC2)c1F [Example 1-32, N-[(1R)-1-[2-fluoro-3-[1-(hydroxymethyl)cyclopropyl]phenyl]ethyl]-1-[5-(3-methyltriazol-4-yl)-3-pyridyl]-6-oxo-pyridazine-3-carboxamide] | IC50 ([2]; read-out: KRAS G12C::SOS1 PPI, 8 concentrations from 3 µM, three replicates): > 150 nM
